As usually defined, the MIC is the smallest concentration in the dilution series that meets the test's criterion for growth inhibition. By CC50 is commonly meant the concentration that lowers cell viability or growth by half.

From ChEMBL document CHEMBL5385943, “Synthesis, biological evaluation and molecular docking study of pyrimidine linked thiazolidinedione derivatives as potential antimicrobial and antitubercular agents” (Bioorg Med Chem Lett, 2024) come the findings set out here.

Converted amounts (≈) assume the structure as drawn. The source made the active and inactive calls.

Data set [1] has as its system Mycobacterium tuberculosis. Briefly: Antitubercular activity against Mycobacterium tuberculosis H37Rv by agar dilution method. It counts as functional. In general terms: In agar dilution the substance is mixed into plates at graded concentrations.
For data set [2], the system named is Staphylococcus aureus. Briefly: Antimicrobial activity against methicillin-resistant Staphylococcus aureus assessed as reduction in microbial growth. It counts as functional.
Data set [3] concerns Staphylococcus aureus. The data set is described as follows: Antimicrobial activity against Staphylococcus aureus assessed as reduction in microbial growth. It counts as functional.
Data set [4] in a line: Selectivity index, ratio of CC50 for human WI-38 cells to MIC for Mycobacterium tuberculosis H37Rv. The note with it: read-out: Selectivity Index. It counts as toxicity.
Data set [5] can be described thus: Cytotoxicity against human WI-38 cells assessed as reduction in cell growth. It counts as toxicity, cell-based.
Data set [6] deals with Escherichia coli. The data set is described as follows: Antimicrobial activity against Escherichia coli assessed as reduction in microbial growth. It counts as functional.
Data set [7] relates to Bacillus subtilis. The data set is described as follows: Antimicrobial activity against Bacillus subtilis assessed as reduction in microbial growth. It counts as functional.
Data set [8] deals with Candida albicans. The data set is described as follows: Antimicrobial activity against Candida albicans assessed as reduction in microbial growth. It counts as functional.
In data set [9] the test system is Staphylococcus aureus. The data set is described as follows: Antibacterial activity against methicillin resistant Staphylococcus aureus at 1 times MIC measured after 180 mins by time kill assay. It counts as functional, organism-based.
Data set [10] deals with Escherichia coli. The data set is described as follows: Antibacterial activity against Escherichia coli at 1 times MIC measured after 150 mins by time kill assay. It counts as functional, organism-based.
For data set [11], the system named is Staphylococcus aureus. Briefly: Antibacterial activity against methicillin resistant Staphylococcus aureus at 1 times MIC measured after 150 mins by time kill assay. It counts as functional, organism-based.
Data set [12] deals with Escherichia coli. The data set is described as follows: Antibacterial activity against Escherichia coli at 1 times MIC measured after 120 to 150 mins by time kill assay. It counts as functional, organism-based. The settings on record: time 120-150 min.
For data set [13], the system named is Staphylococcus aureus. Briefly: Antibacterial activity against methicillin resistant Staphylococcus aureus at 1 times MIC measured after 120 to 150 mins by time kill assay. It counts as functional, organism-based. The note with it: time 120-150 min.

`O=C1S/C(=C\c2cnc(C(F)(F)F)nc2)C(=O)N1C(=O)c1ccc(Cl)cc1`: the MIC came to 4.83 µM (≈ 2 µg/mL) in data set [1]; 36.4 µM in data set [2]; 16.8 µM in data set [3]; 17.8 µM in [6]; 14.4 µM in data set [7]; 19.4 µM in data set [8]. In addition, the selectivity ratio in [4] is 10.3. In data set [5], the CC50 is above 50 µM.
With `CC(=O)NC[C@H]1CN(c2ccc(N3CCOCC3)c(F)c2)C(=O)O1` [LINEZOLID], in data set [2], the MIC came to 23.1 µM.
On to `O=C1S/C(=C\c2cnc(C(F)(F)F)nc2)C(=O)N1C(=O)c1cc(F)c(F)c(F)c1`, for which the MIC in data set [1] came out at 0.32 µM (≈ 0.139 µg/mL); in data set [2], 15.4 µM; in data set [3], 8.6 µM; in [6] it was 9.7 µM; in data set [7] it was 8.1 µM; in data set [8], 9.5 µM. The selectivity ratio in data set [4] came to 156. Besides, the CC50 in data set [5] is above 50 µM. The result in [9] and in [10] was Active.
As for `O=C1S/C(=C\c2cnc(C(F)(F)F)nc2)C(=O)N1C(=O)c1ccccc1`, the MIC stood at 5.62 µM (≈ 2.13 µg/mL) in data set [1]; 62.5 µM in [2]; 27.1 µM in [3]; 28.3 µM in data set [6]; 19.5 µM in [7]; 30.6 µM in data set [8]. In addition, the selectivity ratio in data set [4] was 8.89. The CC50 in data set [5] was above 50 µM.
Regarding `O=C1S/C(=C\c2cnc(C(F)(F)F)nc2)C(=O)N1C(=O)c1ccc(Br)cc1`, the MIC in data set [1] was found to be 6.12 µM (≈ 2.8 µg/mL); in data set [2], 48.2 µM; in [3], 20.7 µM; in data set [6], 22.6 µM; in data set [7], 17.3 µM; in data set [8], 4.7 µM. Moreover, the selectivity ratio in data set [4] was determined as 8.17. Also, the CC50 in data set [5] was above 50 µM.
Regarding `O=C1S/C(=C\c2cnc(C(F)(F)F)nc2)C(=O)N1C(=O)c1ccc(O)cc1`, the MIC in [1] was determined as 10.9 µM (≈ 4.31 µg/mL); in data set [2] it was 79.2 µM; in [3], 37.4 µM; in [6], 40.9 µM; in data set [7], 28.3 µM; in data set [8] it was 53.7 µM. Also, the selectivity ratio in data set [4] was found to be 4.58. For the same compound, the CC50 in data set [5] is above 50 µM.
On to `O=C1S/C(=C\c2cnc(C(F)(F)F)nc2)C(=O)N1C(=O)c1cc(F)cc(F)c1`, for which the MIC in data set [1] is 0.71 µM (≈ 0.295 µg/mL); in [2] it was 21.9 µM; in [3] it was 10.3 µM; in data set [6], 11.2 µM; in data set [7], 9.7 µM; in data set [8] it was 11.8 µM. Moreover, the selectivity ratio in data set [4] is 70.4. Also, the CC50 in [5] was above 50 µM.
Consider `O=C1S/C(=C\c2cnc(C(F)(F)F)nc2)C(=O)N1C(=O)c1ccc([N+](=O)[O-])cc1`, for which the MIC in data set [1] was 1.06 µM (≈ 0.45 µg/mL); in data set [2], 24.1 µM; in data set [3], 10.9 µM; in data set [6], 11.7 µM; in [7], 10.2 µM; in data set [8], 12.9 µM. Further, the selectivity ratio in data set [4] turned out to be 47.2. Also, in [5], the CC50 was above 50 µM.
For `Cc1ccc(C(=O)N2C(=O)S/C(=C\c3cnc(C(F)(F)F)nc3)C2=O)cc1`, the MIC in data set [1] was found to be 8.49 µM (≈ 3.34 µg/mL); in [2], 71.8 µM; in data set [3] it was 30.6 µM; in [6], 35.8 µM; in data set [7] it was 24.9 µM; in data set [8], 41.3 µM. Besides, in [4], the selectivity ratio worked out at 5.89. In addition, in data set [5], the CC50 is above 50 µM.
`NNC(=O)c1ccncc1` [ISONIAZID]: the lowest concentration to inhibit growth in data set [1] (MIC) was 0.35 µM (≈ 0.048 µg/mL). For the same compound, the selectivity ratio in [4] is 143. Besides, the CC50 in data set [5] was above 50 µM.
Regarding `OC(Cn1cncn1)(Cn1cncn1)c1ccc(F)cc1F` [FLUCONAZOLE], in [8], the minimum inhibitory concentration (MIC) was 14.9 µM.
Turning to `O=C1S/C(=C\c2cnc(C(F)(F)F)nc2)C(=O)N1C(=O)c1ccc(F)cc1`, the MIC in [1] amounted to 3.25 µM (≈ 1.29 µg/mL); in [2], 31.7 µM; in [3], 13.7 µM; in [6], 15.1 µM; in data set [7], 12.8 µM; in data set [8], 16.8 µM. For the same compound, in data set [4], the selectivity ratio stood at 15.4. In addition, the CC50 in data set [5] is above 50 µM.
In the case of GENTAMICIN, the result in data set [11] was inactive.
On to `CN[C@@H]1[C@H](O[C@H]2[C@H](O[C@H]3[C@H](O)[C@@H](O)[C@H](N=C(N)N)[C@@H](O)[C@@H]3N=C(N)N)O[C@@H](C)[C@]2(O)C=O)O[C@@H](CO)[C@H](O)[C@H]1O` [STREPTOMYCIN], for which the MIC stood at 11.9 µM in data set [3], 14.3 µM in data set [6] and 11.5 µM in data set [7].
For the compound `O=C1S/C(=C\c2cnc(C(F)(F)F)nc2)C(=O)N1C(=O)c1ccc(C(F)(F)F)cc1`, the MIC came to 0.22 µM (≈ 0.0984 µg/mL) in data set [1]; 10.8 µM in [2]; 6.4 µM in data set [3]; 8.4 µM in [6]; 6.1 µM in data set [7]; 8.1 µM in [8]. For the same compound, the result in data set [12] and in data set [13] was Active. Also, the selectivity ratio in data set [4] amounted to 227. The CC50 in [5] was above 50 µM.
